One assay concerns RhoA. The experiment in a line: GTP-Rho pull-down assay in HEK 293T cell pellets. The format is cell-based. To be noted: 10 min, HEK 293T transfected with mouse Gpr56. As for the experimental part:
HEK 293T cells were transiently transfected with mouse Gpr56 cDNA. Twenty-four hours after transfection, the cells were subject to serum starvation for 36 hr followed by the addition of recombinant TG2 250 nM with/without recombinant laminin-111 12.5 nM, or acetic acid as control for 10 min. The conditioned media were harvested, filtered, and concentrated as previously described. Equal volumes of the concentrated media were used for Western blot (Luo et al., PLOS One 9, e100043, 2014), while the cell pellets were used for GTP-Rho pull-down assay.
The corpus callosums (CCs) were dissected under a Leica stereo microscope (MZ 6; Leica™ Pte Ltd.), followed by washes in PBS and lysis in ice-cold RIPA buffer (1% Nonidet P-40, 50 mM Tris pH 7.6, 120 mM NaCl, 1 mM EDTA) containing protease inhibitor cocktail set 1 (Calbiochem). The lysates were cleared of insoluble materials by centrifugation at 16,000×g for 10 min at 4° C. Protein concentration was determined by a Bio-Rad protein assay method (Bio-Rad) according to the manufacturer's protocol, and equal amounts of protein were used for SDS-PAGE and western blot analysis. The GTP-Rho pull-down assay was performed as previously described (Luo et al., Proc Natl Acad Sci USA 108, 12925-12930, 2011). […] Bound Rho proteins were eluted by Laemmli sample buffer and detected by western blot using mouse monoclonal anti-RhoA antibody (Cytoskeleton).

For assay [1], the system named is oligodendrocyte precursors (OPCs). In words: OPC proliferation on laminin-111 or fibronectin with recombinant TG2. The class given is cell-based, mouse. From the text:
P=0.70 (control vs. TG2-W241A); **P=0.0088 (TG2 vs. TG2-W241A). […] FIG. 16D depicts a Western blot of active RhoA (top panel) and total RhoA (bottom panel) in the corpus callosum (CC) of Tgm2^+/+ and Tgm2^−/− mice. FIG. 16E is a graph showing that the relative level of active RhoA to total RhoA was diminished in the CC of Tgm2^−/− mice compared to […]. *P=0.0207, unpaired t-test, N=3 per genotype. FIG. 16F depicts a Western blot of GPR56^N in the supernatant of HEK 293T cell culture after exposed to either TG2 or TG2+laminin-111 (top panel), GTP-RhoA (middle panel) and total RhoA (lower panel) in HEK 293T cell pellet exposed to either TG2 or TG2+laminin-111. FIG. 16G is a graph showing that released GPR56 NTF was increased in the presence of both TG2 and laminin-111. ***P=0.0002; One-way ANOVA followed by Tukey post-hoc test, F (2,6)=49.66, n.s. P=0.95 (control vs. TG2); ***P=0.0003 (control vs. TG2+laminin-111); ***P=0.0004 (TG2 vs. TG2+laminin-111); N=3 per treatment group. FIG. 16H is a graph showing that the relative level of GTP-RhoA to total RhoA was increased in the presence of both TG2 and laminin-111, corresponding to the increased GPR56 NTF in the supernatant. **P=0.0028; One-way ANOVA followed by Tukey post-hoc test, F (2,6)=18.19, n.s. P=0.75 (control vs. TG2); **P=0.0035 (control vs. TG2+laminin-111); **P=0.0071 (TG2 vs. TG2+laminin-111) N=3 per treatment group. Error bars are mean±s.e.m in FIGS. 16E, 16G, and 16H.
To establish conditions for mechanistic investigation of the function of TG2 on OPC GPR56 during myelination and remyelination, in vitro experiments were performed with wt and Gpr56^−/− oligodendrocyte precursors (OPCs) and human recombinant TG2. […] TG2 is an extracellular protein with intrinsic transamidation activity, capable of cross-linking ECM proteins, including laminin-111 (Aeschlimann et al., J Biol Chem 267, 11316-11321, 1992; Belkin, FEBS J 278, 4704-4716, 2011). […] To confirm that TG2 regulates OPC proliferation in a GPR56-dependent manner, OPCs derived from P5 Gpr56^+/+ or Gpr56^−/− pups were cultured in the presence of laminin-111, with or without recombinant TG2. TG2-associated proliferation was attenuated in Gpr56^−/− OPCs (FIG. 16C), further supporting a GPR56-dependent TG2 function on OPC proliferation.
Oligodendrocyte precursor cells (OPCs) were isolated from mixed male and female P5-8 Gpr56^+/+ or Gpr56^−/− mouse forebrains as previously described (Wang et al., Neuron 29, 603-614, 2001; Watkins et al., Neuron 60, 555-569, 2008). Briefly, OPCs were purified by negatively selecting with mouse anti-Thy 1.2 (Serotec, Cat #MCA02R) and mouse anti-GalC (Millipore, Cat #MAB342), followed by mouse anti-04 (04 hybridoma supernatant) for positive selection. After releasing OPCs from the 04 plate by trypsinization, cells were resuspended in proliferation media containing PDGF-AA and NT-3 (PreproTech). OPCs were plated on coverslips coated with poly-D-lysine before coating with laminin I (R&D Systems, Cat #3400-010-01) or fibronectin (Millipore, Cat #341668) as previously described (Dugas et al., J Neurosci 26, 10967-10983, 2006). After 24 hr, TG2 (2 nM) was added to the cultures and incubated for an additional 24 hr before fixation with 4% PFA and staining for PDGFRα and Ki67.

Consider Transglutaminase 2 [TG2], for which the “Relative level of GTP-RhoA to total RhoA” value in the assay with RhoA (TG2 250 nM alone vs control) was “n.s”; in the assay with RhoA (TG2 250 nM with laminin-111 12.5 nM) it was “activating RhoA downstream signaling”. Further, the OPC proliferation entry in assay [1] (Gpr56−/− OPCs, in the presence of laminin-111, with recombinant TG2) is listed as “attenuated”; in assay [1] (Gpr56−/− OPCs, in the presence of laminin-111, with recombinant TG2, listed as recombinant TG2), “failed to respond”; in assay [1] (wt OPCs, basal condition (no laminin-111), TG2 2 nM, 24 hr), “failed to augment”; in assay [1] (wt OPCs, in the presence of laminin-111, TG2 2 nM, 24 hr) it was “stimulated OPC proliferation”; in assay [1] (wt OPCs, in the presence of laminin-111, TG2 2 nM, 24 hr, listed as recombinant TG2), “significantly increased”. Besides, the “OPC proliferation, wild type TG2 vs enzymatic dead mutant” value in assay [1] (versus control, One-way ANOVA, Tukey post-hoc) was “stimulated OPC proliferation”.

(Values after patent US12358959B2, “Compositions and methods for oligodendrocyte development” (CHILDREN'S MEDICAL CENTER CORPORATION, priority 2016, dated 2025).)
